# According to PMC5859971 (Genes & Development, 2018):
# “And” between values parts separate entries of the source, which are not always exact repeats. Identical values can stand only once.
# Tests used:
# [1] = biological target: T1, SF3b subcomplex (SF3B1 residues 454–1304, SF3B3, PHF5A, SF3B5) (Homo sapiens, UniProt O75533+Q7RTV0); assay: Microscale thermophoresis (MST) compound binding to SF3b subcomplex; conditions: SF3b subcomplex bound to NTA-647 fixed at 10 nM
# T1 construct: SF3B1 was limited to the HEAT repeat domain from residues 454–1304 and cloned in-frame with an N-terminal Flag tag; Truncated SF3B1 and full-length SF3B3, PHF5A, and SF3B5 were synthesized; made in house; host or cells: SF21 insect cells (baculovirus, pFastBac1)
# Protocol: The four-protein complex composed of the HEAT repeats of SF3B1 (residues 454–1304) as well as full-length SF3B3, SF3B5, and PHF5A was coexpressed and purified from insect cells. This complex is necessary and sufficient for compound binding in a scintillation proximity assay (SPA) format ([Teng et al. 2017]).
# The SF3b subcomplex was first titrated against a fixed concentration (25 nM) of fluorescent label (NTA-647) to determine the optimal concentrations of protein and label for the MST experiment. After 15 min of incubation at room temperature, samples were loaded into Monolith NT.115 capillaries, and MST analysis was performed using a Monolith NT.115Pico. […] For subsequent compound-binding experiments, the SF3b subcomplex bound to NTA-647 was fixed at 10 nM, and the compound was titrated from 50 µM to 3 pM. After 15 min of incubation, samples were loaded into capillaries, and analysis was performed as described previously.
# Binding of E7107 to SF3b 4-protein complex by MicroScale Thermophoresis (MST). The complex is
# labeled with the fluorescent dye NTA-647 and kept constant at 10 nM. E7107 was titrated and a KD of
# 3.6 nM was determined for the interaction.
# (1 picture or pasted object on this page, not shown here)
# [2] = test system: HCT116-PHF5A^R38C; assay: CellTiter-Glo viability assay, HCT116-PHF5A^R38C; type: cell-based, human
# Protocol: To further validate the pose of the compound, we analyzed the activity of several related chemical probes using the SPA with the purified protein complex ([Teng et al. 2017]). The SPA is formatted as a competition assay in which the purified protein complex is captured on a bead containing scintillant, incubated with test compounds over a dose response, and then competed off with a fixed concentration of ^3H-Plad compound. IC50 curves are then measured from the resulting light emitted from the bead (Table 1; Supplemental Fig. S4). In addition, we tested the probes in viability assays in two engineered cell lines: HCT116-PHF5A^WT and the sensitization line HCT116-PHF5A^R38C (Table 1; Supplemental Fig. S5). This facilitates profiling of chemical probe activity in the PHF5A background (wild type and mutant). The relative expression levels were further confirmed by Western blot analysis (Supplemental Fig. S5).
# Parental HCT116 cells were obtained from American Type Culture Collection and cultured in RPMI 1640 medium supplemented with 10% fetal bovine serum. PHF5A R38C was generated using the Agilent QuikChange II kit and was cloned into pLenti6.3/V5 as described ([Teng et al. 2017]). The verified clone was used for lentivirus production using X293T cells. Parental HCT116 cells were infected with virus and selected with blasticidin S at 10 µg mL^−1 for 1 wk. Engineered cell lines were subsequently maintained in the absence of antibiotic. Transgene expression was confirmed by Western blot analysis (Supplemental Fig. S4). For Western blot analysis, α-PHF5A rabbit polyclonal antibody (Protein Tech, 15554-1-AP) was used at 1:1000 dilution in LI-COR buffer, and anti-rabbit secondary antibody (LI-COR) was used at 1:5000 dilution. The Western blot was imaged using an Odyssey V3.0 imager (LI-COR). For CellTiter-Glo analysis of the wild-type and PHF5A^R38C cell lines, 500 cells were seeded in each well of a 384-well plate 1 d before compound addition. Dose response was measured in 11-point serial dilutions with a top dose of 10 µM. The percentage of DMSO was controlled throughout, and a DMSO-only control was included. Seventy-two hours after dosing, CellTiter-Glo reagent was added, incubated, and assayed on an EnVision multilabel reader (PerkinElmer). Luminescence values from each treatment were normalized to the average value of the respective DMSO control. The dose response curve plots were generated in GraphPad Prism, and GI50 values were calculated from nonlinear regression analysis. GI50 values for the wild-type and R38C mutant cell lines were plotted in Spotfire.
# [3] = test system: splicing of Ad2.2 pre-mRNA substrate; assay: In vitro splicing (IVS) assay, Ad2.2 substrate, HeLa S3 nuclear extracts, RT-qPCR; type: biochemical, human
# From the text: A substrate competitive mechanism of action (MOA) would predict that weaker pre-mRNA substrates would be easier to inhibit than stronger substrates. To date, it has not been possible to evaluate substrate competition using traditional steady-state conditions because splicing reactions are thought to be single-turnover events in vitro, and therefore it is not possible to measure a KM for the pre-mRNA. […] Specifically, we engineered the strong in vitro splicing substrate Ad2.1 by enhancing the U2 snRNP base-pairing around the BPA found in the Ad2 substrate. We then engineered a weaker substrate, Ad2.2, by adding a decoy BPS lacking an extrahelical adenosine (Ad2.2) (Fig. 5A; Supplemental Vector NTI files; [Corrionero et al. 2011]). […] We then evaluated E7107 and several chemical probes to better understand their mechanism.
# Figure 5. […] (A) Base-pairing logic for IVS substrates. (BPRS) Branch point recognition sequence in U2 snRNA; (BPS) the BPS in the pre-mRNA. The Ad2 gene BPS sequence (UACUUAU) was modified (UACUAAU) to strengthen the U2 base-pairing interactions flanking the BPA, leading to the Ad2.1 substrate (BPA in red). The Ad2.2 sequence has the same BPS as Ad2 but also contains a 5′ decoy BPS sequence (lacking an extrahelical adenine) that can base-pair with the BPRS. The decoy BPS and suboptimal BPS overlap, which gives U2 at least two possibilities for possible base pairing, as indicated. […] (B) RT-qPCR time-course data showing product formation over time. […] (C) Representative IC50 curves for compound 6 using the two different substrates (Ad2.1 and Ad2.2).
# The Ad2-derived ([Pellizzoni et al. 1998]) sequence was cloned into the pGEM-3Z vector (Promega) using 5′ EcoRI and 3′ XbaI restriction sites. The Ad2 variant (Ad2.2) ([Seiler et al. 2018]) was cloned into pcDNA3.1(+) vector (Promega) using the same restriction sites. The plasmids were linearized using XbaI and used as DNA templates in the in vitro transcription reactions. The FtzΔi intron-less plasmid ([Luo and Reed 1999]) was linearized using EcoRI. All RNAs were in vitro transcribed and then purified using MegaScript T7 and MegaClear kits, respectively (Invitrogen). For splicing reactions used with the Ad2.2 substrate, […] reactions were prepared using 8 µg of nuclear extracts prepared from HeLa S3, a saturating excess of 2 ng of pre-mRNA substrate, 0.2 ng of FTZΔi, and varying concentrations of compounds or DMSO.
# T1 sequence (O75533 454-1304): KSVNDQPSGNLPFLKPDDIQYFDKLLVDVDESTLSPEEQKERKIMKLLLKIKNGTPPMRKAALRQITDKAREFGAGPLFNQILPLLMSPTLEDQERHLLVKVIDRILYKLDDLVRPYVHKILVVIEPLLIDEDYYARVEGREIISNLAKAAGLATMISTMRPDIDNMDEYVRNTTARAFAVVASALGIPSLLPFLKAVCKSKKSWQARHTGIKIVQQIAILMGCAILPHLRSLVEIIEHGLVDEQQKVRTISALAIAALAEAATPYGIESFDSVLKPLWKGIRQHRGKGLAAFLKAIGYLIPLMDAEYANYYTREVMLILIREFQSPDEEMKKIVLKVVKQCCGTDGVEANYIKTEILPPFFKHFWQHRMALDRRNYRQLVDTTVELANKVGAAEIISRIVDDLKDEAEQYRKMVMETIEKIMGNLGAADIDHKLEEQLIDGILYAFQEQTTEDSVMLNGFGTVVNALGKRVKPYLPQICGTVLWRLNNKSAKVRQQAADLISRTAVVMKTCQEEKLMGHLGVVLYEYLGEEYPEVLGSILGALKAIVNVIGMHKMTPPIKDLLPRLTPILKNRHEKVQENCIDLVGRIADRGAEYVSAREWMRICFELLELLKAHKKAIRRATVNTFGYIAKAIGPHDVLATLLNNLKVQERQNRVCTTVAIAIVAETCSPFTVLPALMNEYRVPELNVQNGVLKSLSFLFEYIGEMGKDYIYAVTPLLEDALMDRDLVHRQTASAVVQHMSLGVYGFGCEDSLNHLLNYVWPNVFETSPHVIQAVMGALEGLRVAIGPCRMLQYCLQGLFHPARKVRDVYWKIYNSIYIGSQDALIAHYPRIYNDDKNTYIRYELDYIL
# T1 sequence (Q9BWJ5 whole entry, further chain, the tested form may be a part): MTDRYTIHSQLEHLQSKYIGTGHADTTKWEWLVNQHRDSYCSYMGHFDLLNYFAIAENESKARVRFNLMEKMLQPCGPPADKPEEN
# T1 sequence (Q7RTV0 whole entry, the tested form may be a part): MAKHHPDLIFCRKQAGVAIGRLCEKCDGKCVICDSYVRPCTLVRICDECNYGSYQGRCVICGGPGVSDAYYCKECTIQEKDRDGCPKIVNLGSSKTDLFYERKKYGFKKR
# T1 sequence (Q15393 whole entry, further chain, the tested form may be a part): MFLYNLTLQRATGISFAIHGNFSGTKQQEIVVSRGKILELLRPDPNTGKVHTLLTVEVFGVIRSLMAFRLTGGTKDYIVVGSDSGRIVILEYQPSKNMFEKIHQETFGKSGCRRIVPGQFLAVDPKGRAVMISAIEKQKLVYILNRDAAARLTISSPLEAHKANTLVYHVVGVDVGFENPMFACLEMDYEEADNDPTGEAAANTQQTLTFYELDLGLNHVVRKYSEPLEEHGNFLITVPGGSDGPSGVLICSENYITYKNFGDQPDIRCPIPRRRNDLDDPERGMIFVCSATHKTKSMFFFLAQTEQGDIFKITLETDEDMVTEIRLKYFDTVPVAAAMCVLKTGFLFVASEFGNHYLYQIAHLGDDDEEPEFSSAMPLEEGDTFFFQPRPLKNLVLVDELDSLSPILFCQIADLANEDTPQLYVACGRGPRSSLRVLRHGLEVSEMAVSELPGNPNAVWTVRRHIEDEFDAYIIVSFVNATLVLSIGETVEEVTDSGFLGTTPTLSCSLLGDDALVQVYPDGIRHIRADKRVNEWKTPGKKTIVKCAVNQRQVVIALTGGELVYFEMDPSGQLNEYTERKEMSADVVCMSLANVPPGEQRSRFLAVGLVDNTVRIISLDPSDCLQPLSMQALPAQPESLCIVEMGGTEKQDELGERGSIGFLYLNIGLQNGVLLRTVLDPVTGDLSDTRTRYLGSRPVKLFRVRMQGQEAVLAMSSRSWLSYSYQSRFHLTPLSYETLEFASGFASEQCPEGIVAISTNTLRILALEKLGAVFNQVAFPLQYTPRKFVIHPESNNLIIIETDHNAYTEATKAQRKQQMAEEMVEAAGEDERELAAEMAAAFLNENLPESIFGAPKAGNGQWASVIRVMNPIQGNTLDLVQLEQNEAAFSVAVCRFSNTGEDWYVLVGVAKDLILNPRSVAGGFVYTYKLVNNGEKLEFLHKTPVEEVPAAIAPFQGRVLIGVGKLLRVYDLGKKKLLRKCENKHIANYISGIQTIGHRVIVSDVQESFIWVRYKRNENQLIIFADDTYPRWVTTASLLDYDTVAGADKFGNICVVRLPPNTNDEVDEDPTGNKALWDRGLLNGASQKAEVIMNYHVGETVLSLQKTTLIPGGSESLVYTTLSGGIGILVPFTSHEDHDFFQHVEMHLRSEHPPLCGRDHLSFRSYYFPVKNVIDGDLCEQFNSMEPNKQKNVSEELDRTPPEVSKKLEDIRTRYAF
structure (smiles),measurement,setting,value
CCC(O)C(C)C1OC1CC(C)(O)C=CC=C(C)C1OC(=O)CC(O)CCC(C)(O)C(OC(=O)N2CCN(C3CCCCCC3)CC2)C=CC1C (stereo not drawn) [Compound E7107],Kd,[1],3.6 nM and ~3.6 nM
same,sensitization (enhanced potency in PHF5A^R38C vs wild type),"[2]; GI50 R38C vs wild type, n = 2",twofold
same,GI50,"[2]; Homo sapiens, 72 h, CellTiter-Glo, read-out: HCT116-PHF5A^R38C GI50",1.2 nM
same,PHF5A^R38C sensitization phenotype (words),[2]; R38C vs wild type,sensitization
same,inhibition of strong and weak IVS substrates,[3]; Ad2.1 and Ad2.2 substrates compared,inhibit both the strong and weak substrates equally well
same,IC50,[3]; Ad2.2 (weak) substrate,9.9 nM
